Source: US20110288052A1, “NOVEL COMPOUNDS, PHARMACEUTICAL COMPOSITIONS CONTAINING SAME, AND METHODS OF USE FOR SAME” (priority 2008, published 2011)

Biological target: T1, Human FAS purified from ZR-75-1 human breast cancer cells (Homo sapiens, UniProt P49327)
T1 construct: Human FAS was purified from cultured ZR-75-1 human breast cancer cells; endogenous in cells; host or cells: ZR-75-1 human breast cancer cells (ATCC); enzyme purified by hypotonic lysis, PEG precipitation and Mono Q anion exchange
Assay: FAS enzymatic activity (malonyl-CoA dependent NADPH oxidation)
Assay type: biochemical
Conditions: (SB)
Description: Purification of FAS from ZR-75-1 Human Breast Cancer Cells. Human FAS was purified from cultured ZR-75-1 human breast cancer cells obtained from the American Type Culture Collection. The procedure, adapted from Linn et al., 1981, and Kuhajda et al., 1994, utilizes hypotonic lysis, successive polyethyleneglycol (PEG) precipitations, and anion exchange chromatography. ZR-75-1 cells are cultured at 37° C. with 5% CO2 in RPMI culture medium with 10% fetal bovine serum, penicillin and streptomycin.
Ten T150 flasks of confluent cells are lysed with 1.5 ml lysis buffer (20 mM Tris-HCl, pH 7.5, 1 mM EDTA, 0.1 mM phenylmethanesulfonyl fluoride (PMSF), 0.1% Igepal CA-630) and bounce homogenized on ice for 20 strokes. […] FAS protein concentration is determined using the Coomassie Plus Protein Assay Reagent (Pierce) according to manufacturer's specifications using BSA as a standard. […]
Measurement of FAS Enzymatic Activity and Determination of the IC50 of the Compounds FAS activity is measured by monitoring the malonyl-CoA dependent oxidation of NADPH spectrophotometrically at OD340 in 96-well plates (Dils et al and Arslanian et al, 1975). […]
The assay is performed on a Molecular Devices SpectraMax Plus Spectrophotometer. […] The plate is read again as above with the kinetic protocol to measure the malonyl-CoA dependent NADPH oxidation. […]

T1 sequence (P49327 2-2511 limits assumed): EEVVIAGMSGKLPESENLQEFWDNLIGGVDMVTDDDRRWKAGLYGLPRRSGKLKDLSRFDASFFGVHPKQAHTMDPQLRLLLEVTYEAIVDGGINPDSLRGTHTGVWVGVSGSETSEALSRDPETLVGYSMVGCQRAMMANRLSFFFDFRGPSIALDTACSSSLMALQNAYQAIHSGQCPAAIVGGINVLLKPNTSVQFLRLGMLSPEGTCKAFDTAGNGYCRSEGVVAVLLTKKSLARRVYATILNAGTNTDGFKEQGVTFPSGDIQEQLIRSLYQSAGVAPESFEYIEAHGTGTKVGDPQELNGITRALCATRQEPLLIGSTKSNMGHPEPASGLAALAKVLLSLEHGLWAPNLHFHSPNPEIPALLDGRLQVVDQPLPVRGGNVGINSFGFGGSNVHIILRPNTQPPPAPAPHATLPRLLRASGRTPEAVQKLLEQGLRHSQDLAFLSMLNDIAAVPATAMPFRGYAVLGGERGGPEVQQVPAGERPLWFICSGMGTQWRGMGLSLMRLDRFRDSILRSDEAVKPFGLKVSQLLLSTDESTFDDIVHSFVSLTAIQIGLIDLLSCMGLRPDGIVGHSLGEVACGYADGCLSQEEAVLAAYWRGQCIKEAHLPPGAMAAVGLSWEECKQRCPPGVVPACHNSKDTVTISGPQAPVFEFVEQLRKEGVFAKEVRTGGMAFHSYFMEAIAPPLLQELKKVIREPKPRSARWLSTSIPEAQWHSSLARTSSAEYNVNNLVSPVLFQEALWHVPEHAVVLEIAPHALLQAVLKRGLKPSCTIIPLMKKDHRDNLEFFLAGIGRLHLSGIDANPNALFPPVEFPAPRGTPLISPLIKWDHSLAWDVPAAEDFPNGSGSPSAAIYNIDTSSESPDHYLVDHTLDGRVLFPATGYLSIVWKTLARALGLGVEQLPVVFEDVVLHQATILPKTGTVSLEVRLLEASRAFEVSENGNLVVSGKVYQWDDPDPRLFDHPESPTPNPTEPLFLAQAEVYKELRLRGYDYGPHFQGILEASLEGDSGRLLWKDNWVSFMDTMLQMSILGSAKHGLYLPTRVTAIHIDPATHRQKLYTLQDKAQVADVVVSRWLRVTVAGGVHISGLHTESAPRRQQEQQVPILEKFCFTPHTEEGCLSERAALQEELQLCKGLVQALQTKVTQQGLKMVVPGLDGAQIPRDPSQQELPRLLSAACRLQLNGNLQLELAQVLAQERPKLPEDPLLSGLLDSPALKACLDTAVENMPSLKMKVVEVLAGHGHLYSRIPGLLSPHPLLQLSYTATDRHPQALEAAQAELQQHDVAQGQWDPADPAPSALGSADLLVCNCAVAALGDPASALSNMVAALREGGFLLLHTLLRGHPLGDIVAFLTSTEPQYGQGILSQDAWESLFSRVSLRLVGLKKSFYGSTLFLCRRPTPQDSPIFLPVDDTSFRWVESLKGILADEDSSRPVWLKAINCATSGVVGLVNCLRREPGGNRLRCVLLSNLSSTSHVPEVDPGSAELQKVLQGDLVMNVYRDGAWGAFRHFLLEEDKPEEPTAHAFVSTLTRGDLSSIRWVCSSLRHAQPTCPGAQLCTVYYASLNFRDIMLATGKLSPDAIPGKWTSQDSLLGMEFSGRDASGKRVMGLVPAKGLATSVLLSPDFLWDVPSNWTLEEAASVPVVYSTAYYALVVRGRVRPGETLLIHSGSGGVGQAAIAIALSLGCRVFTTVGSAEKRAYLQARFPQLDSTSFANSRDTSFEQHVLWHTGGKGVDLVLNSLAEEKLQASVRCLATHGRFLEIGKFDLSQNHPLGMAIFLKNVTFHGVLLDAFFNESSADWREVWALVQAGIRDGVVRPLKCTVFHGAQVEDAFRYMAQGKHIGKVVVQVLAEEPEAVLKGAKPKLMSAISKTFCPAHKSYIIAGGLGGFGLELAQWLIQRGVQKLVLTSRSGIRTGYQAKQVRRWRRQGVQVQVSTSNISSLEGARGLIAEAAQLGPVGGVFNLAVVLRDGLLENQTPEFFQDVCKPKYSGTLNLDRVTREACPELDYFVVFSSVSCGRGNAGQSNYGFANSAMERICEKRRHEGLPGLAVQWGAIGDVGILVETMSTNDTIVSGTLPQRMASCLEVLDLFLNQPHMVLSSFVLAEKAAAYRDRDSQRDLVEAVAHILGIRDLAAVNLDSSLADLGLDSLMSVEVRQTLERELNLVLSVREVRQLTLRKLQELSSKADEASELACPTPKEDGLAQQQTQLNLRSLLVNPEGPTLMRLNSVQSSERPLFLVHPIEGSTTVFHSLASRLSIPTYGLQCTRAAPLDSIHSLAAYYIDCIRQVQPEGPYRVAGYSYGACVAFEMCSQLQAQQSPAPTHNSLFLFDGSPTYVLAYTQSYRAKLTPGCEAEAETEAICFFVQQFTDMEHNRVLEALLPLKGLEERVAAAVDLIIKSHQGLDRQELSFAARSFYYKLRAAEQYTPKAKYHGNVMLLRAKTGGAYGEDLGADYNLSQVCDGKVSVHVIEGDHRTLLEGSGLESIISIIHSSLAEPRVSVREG

FAS (IC50) | IC50 [µM] | SMILES
Neg (SB) |  | CCCCCCCCC1(C)SC(=O)C=C1OCC(=O)Nc1ccc(Cl)cc1Cl (centres unmarked)
 | 266 | CCCCCCCCC1(C)SC(=O)C=C1OCC(=O)Nc1ccc(Cl)cc1 (centres unmarked)
